Reference: PubChem BioAssay (NCI)
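48-hour exposure; five concentrations; linearly interpolated endpoints. TGI: concentration producing complete growth inhibition.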

How the values were obtained:
Test in all cases: NCI tumour cell line growth inhibition, 48 h
DLD-1 colon = system: DLD-1 colon
DMS 114 small cell lung = system: DMS 114 small cell lung
DMS 273 small cell lung = system: DMS 273 small cell lung
KM20L2 colon = system: KM20L2 colon
LXFL 529 NSCLC = system: LXFL 529 NSCLC
M19-MEL melanoma = system: M19-MEL melanoma
SNB-78 CNS = system: SNB-78 CNS
XF 498 CNS = system: XF 498 CNS
HOP-18 NSCLC = system: HOP-18 NSCLC
P388 leukemia = system: P388 leukemia
P388/ADR leukemia = system: P388/ADR leukemia
SN12K1 renal = system: SN12K1 renal
RXF-631 renal = system: RXF-631 renal

Row | SMILES | TGI (DLD-1 colon) [µM] | TGI (DMS 114 small cell lung) [µM] | TGI (DMS 273 small cell lung) [µM] | TGI (KM20L2 colon) [µM] | TGI (LXFL 529 NSCLC) [µM] | TGI (M19-MEL melanoma) [µM] | TGI (SNB-78 CNS) [µM] | TGI (XF 498 CNS) [µM] | TGI (HOP-18 NSCLC) [µM] | TGI (P388 leukemia) [µM] | TGI (P388/ADR leukemia) [µM] | TGI (SN12K1 renal) [µM] | TGI (RXF-631 renal) [µM]
1 | CC(C)=CCC/C(C)=C/Cc1c(O)ccc2c1[nH]c1cc(O)c(C)cc12 | > 25 | > 25 | > 25 | > 25 | > 25 | > 25 | > 25 | > 25 | – | – | – | – | –
2 | O=C(O)c1cc2c(s1)C(=O)c1sccc1C2=O | 27.7 | 11.2 | 22.8 | 35.3 | – | 2.49 | 0.909 | 35.4 | 17.7 | – | – | – | –
3 | OC(c1ccccc1)(c1ccccc1)c1cccnc1 | > 100 | > 100 | > 100 | > 100 | – | > 100 | > 100 | > 100 | > 100 | – | – | – | –
4 | C=CC12CN(C)C3C4COC(CC41)C1(C(=O)Nc4ccccc41)C32 (stereo unspecified) | > 200 | > 200 | > 200 | > 200 | – | > 200 | > 200 | 29.2 | > 200 | > 133 | > 200 | > 200 | –
5 | CC(Oc1ccc(OCC2CCCCC2)cc1)C(=O)N(CCO)CCO (stereo unspecified) | – | > 100 | > 100 | – | > 100 | > 100 | > 100 | > 100 | > 100 | – | – | – | –
6 | CC(=O)O[C@]12CCC[C@H]1C1(O)C(O)CCC[C@H]12 (stereo partly specified) | – | > 100 | > 100 | > 100 | > 100 | > 100 | > 100 | > 100 | > 100 | – | – | – | –
7 | CC(CCc1ccc2c(c1)c(=N)c1ccc(N)cc1n2O)CC(C)(C)C (stereo unspecified) | 3.5 | – | 3.85 | 2.74 | – | 2.98 | 4.32 | 2.45 | 3.35 | – | – | – | –
8 | Cn1c(=O)nc2n(-c3ccc(Cl)cc3Cl)c3ccccc3nc-2c1=O | 24.5 | 4.26 | – | 5.8 | – | 2.91 | 39.3 | 0.864 | 23 | – | – | – | –
9 | O=C(Nc1ccc([N+](=O)[O-])cc1)C(=O)C(C(=O)c1ccccc1F)C1OC(=O)c2ccccc21 (stereo unspecified) | > 100 | 98 | > 100 | > 100 | > 100 | > 100 | > 100 | > 100 | – | – | – | – | 84
10 | CN(C)c1ccc(/C=C/c2cc[n+](C)c3ccccc23)cc1 | 17.1 | 9.5 | 10.8 | 13.1 | 13.5 | 14.9 | 72.4 | – | 19.9 | – | – | – | –
11 | COC(=O)[C@@]12OC[C@]34C([C@@H](O)C1O)[C@@]1(C)CC(=O)C(O)=C(C)C1C[C@H]3OC(=O)[C@H](OC(=O)CC(C)C(F)(F)F)[C@H]42 (stereo partly specified) | 0.509 | 0.128 | 0.0426 | 0.172 | 0.195 | 0.205 | 37.5 | 0.188 | 2.79 | – | – | – | –
12 | CCOC(=O)CN1CCSC1=NC#N | > 100 | > 100 | > 100 | > 100 | – | > 100 | > 100 | > 100 | > 100 | > 100 | > 100 | > 100 | –
